Experiment in all cases: pIC50, kinobeads binding competition
What all share (settings): cell material: Jurkat lysate

Assay [1] has as its target MELK (UniProt Q14680).
For assay [2], the target named is T1, PRKG2 (UniProt Q13237).
T1 sequence (whole entry): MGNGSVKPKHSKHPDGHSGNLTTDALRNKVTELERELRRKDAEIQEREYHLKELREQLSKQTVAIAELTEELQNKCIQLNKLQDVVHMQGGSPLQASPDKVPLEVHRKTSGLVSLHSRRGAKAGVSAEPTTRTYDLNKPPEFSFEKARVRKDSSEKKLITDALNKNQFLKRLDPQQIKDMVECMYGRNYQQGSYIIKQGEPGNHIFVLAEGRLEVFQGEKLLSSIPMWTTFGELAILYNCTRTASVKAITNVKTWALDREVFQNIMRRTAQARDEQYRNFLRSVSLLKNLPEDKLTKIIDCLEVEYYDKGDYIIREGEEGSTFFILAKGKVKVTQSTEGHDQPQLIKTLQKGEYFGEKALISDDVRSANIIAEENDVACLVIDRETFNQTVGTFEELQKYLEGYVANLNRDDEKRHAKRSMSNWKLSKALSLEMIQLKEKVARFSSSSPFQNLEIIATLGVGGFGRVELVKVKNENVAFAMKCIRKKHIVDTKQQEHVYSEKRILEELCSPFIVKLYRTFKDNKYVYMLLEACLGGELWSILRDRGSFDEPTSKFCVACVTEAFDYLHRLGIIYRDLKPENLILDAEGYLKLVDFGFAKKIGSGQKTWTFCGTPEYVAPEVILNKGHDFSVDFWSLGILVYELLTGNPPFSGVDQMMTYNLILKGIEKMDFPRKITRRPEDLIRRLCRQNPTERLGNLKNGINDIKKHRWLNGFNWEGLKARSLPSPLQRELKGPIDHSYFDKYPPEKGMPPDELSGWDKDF

The target of assay [3] is T2, TTK (UniProt P33981).
T2 sequence (whole entry): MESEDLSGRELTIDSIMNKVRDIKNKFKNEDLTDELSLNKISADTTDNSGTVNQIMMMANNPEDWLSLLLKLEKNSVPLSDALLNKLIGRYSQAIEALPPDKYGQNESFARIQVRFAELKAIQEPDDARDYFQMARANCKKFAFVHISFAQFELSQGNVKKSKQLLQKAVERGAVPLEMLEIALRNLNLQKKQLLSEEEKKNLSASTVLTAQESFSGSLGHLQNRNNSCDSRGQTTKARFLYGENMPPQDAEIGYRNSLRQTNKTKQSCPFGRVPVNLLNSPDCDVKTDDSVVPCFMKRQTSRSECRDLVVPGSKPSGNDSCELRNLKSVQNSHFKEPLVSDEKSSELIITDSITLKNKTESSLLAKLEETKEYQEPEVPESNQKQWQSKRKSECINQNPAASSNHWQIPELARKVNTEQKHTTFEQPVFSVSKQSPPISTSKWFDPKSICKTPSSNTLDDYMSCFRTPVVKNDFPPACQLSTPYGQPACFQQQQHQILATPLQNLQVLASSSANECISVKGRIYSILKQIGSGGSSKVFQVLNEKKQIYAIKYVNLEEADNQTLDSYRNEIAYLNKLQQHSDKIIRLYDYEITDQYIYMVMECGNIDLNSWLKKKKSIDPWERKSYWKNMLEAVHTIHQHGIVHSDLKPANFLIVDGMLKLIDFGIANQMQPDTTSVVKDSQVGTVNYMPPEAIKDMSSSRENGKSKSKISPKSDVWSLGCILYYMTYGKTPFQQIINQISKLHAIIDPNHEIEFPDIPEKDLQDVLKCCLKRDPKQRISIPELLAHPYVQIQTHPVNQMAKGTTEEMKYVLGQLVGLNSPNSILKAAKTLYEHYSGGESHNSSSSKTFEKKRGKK

Assay [4] addresses T3, CDKL5 (UniProt O76039).
T3 sequence (whole entry): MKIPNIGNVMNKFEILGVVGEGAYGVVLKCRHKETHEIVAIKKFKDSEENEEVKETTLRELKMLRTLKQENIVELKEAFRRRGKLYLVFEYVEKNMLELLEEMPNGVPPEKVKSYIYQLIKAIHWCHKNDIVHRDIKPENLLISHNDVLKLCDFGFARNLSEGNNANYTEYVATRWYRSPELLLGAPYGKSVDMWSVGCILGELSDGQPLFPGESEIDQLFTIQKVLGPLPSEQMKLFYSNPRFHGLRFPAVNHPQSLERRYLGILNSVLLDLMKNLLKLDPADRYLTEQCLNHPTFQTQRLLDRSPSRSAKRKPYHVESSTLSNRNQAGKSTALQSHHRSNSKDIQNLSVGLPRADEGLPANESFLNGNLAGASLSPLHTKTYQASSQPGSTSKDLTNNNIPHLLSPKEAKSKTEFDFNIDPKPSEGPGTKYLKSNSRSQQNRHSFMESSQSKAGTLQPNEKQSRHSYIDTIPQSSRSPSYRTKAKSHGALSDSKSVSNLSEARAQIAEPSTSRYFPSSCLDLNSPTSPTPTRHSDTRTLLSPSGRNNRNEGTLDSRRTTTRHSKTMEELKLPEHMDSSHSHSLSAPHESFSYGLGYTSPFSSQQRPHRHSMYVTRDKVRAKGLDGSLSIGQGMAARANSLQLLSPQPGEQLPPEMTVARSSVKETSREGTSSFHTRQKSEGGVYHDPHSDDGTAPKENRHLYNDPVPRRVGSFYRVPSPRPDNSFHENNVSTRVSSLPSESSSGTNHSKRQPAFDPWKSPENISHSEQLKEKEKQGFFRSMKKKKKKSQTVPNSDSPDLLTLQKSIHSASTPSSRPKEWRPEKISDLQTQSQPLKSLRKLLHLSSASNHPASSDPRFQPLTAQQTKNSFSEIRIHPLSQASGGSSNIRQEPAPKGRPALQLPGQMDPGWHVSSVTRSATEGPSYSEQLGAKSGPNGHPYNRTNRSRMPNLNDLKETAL

Assay [5] has as its target UniProt Q8N4C8.

In the supplement of paper PMC12076712 one finds pIC50 data, which are given here for one compound.

± gives the standard deviation of the averaged measurements.

For orientation: pIC50 means the negative decadic logarithm of the IC50, by convention in mol/L.

Sequence of UniProt Q8N4C8 (Q8N4C8 whole entry, looked up): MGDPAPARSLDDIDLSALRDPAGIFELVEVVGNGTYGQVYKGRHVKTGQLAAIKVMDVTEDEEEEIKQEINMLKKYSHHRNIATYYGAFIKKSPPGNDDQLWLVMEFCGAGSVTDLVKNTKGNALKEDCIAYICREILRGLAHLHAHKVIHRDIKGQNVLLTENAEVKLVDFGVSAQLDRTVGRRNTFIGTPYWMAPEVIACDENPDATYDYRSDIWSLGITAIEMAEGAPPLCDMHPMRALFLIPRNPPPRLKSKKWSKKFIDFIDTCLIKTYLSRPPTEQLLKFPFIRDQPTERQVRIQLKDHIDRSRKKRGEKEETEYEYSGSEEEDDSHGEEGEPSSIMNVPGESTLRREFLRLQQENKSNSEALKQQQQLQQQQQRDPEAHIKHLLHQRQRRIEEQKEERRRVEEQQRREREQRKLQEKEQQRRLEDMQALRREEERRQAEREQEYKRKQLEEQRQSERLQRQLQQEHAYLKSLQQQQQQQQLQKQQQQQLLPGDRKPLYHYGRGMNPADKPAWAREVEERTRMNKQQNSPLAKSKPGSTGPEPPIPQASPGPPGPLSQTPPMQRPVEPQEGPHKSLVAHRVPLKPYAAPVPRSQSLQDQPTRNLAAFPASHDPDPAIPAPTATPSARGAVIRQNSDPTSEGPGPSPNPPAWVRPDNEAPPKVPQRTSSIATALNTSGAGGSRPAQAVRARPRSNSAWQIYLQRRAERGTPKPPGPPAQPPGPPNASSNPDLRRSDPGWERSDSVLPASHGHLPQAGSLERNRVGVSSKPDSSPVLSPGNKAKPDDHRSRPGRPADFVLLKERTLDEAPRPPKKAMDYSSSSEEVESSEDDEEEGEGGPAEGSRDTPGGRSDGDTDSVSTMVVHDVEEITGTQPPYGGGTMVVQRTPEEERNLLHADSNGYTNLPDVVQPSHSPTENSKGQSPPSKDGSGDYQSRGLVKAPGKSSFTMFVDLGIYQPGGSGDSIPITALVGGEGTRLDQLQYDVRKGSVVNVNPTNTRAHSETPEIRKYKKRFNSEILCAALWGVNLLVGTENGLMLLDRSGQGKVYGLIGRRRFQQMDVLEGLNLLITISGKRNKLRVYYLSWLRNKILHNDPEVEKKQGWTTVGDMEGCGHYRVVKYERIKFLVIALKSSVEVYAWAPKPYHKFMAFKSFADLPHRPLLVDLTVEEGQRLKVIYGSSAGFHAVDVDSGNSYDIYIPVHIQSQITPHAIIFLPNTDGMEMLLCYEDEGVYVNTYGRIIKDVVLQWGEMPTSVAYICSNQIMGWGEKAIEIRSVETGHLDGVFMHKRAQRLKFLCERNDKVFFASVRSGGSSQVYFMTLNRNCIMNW
Sequence of MELK (Q14680 whole entry, looked up): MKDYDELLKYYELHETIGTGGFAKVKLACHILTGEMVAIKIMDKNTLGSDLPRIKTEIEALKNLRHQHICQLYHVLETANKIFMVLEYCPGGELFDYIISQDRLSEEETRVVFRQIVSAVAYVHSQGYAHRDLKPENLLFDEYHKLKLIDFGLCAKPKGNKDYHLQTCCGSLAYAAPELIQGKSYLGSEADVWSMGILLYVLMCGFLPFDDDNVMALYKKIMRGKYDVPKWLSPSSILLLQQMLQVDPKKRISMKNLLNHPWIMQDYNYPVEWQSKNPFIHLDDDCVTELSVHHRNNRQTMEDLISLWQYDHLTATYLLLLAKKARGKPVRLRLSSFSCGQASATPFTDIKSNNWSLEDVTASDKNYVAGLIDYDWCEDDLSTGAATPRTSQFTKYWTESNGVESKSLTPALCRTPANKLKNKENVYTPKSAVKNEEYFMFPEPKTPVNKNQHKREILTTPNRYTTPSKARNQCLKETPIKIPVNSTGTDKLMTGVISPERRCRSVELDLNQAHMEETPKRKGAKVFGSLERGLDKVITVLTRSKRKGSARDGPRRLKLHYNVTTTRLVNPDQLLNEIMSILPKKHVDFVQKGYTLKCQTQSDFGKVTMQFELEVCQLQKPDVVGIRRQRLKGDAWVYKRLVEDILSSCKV

Take `CCc1cnn2c(NCc3ccc[n+]([O-])c3)cc(N3CCCC[C@H]3CCO)nc12` [dinaciclib]: the pIC50 was below 4.52 in assay [1]; below 4.52 in assay [2]; below 4.52 in assay [3]; 6.485 ± 0.035 in assay [4]; below 4.52 in assay [5].
